Laboratory results taken from patent US11542240B2, “STK19 inhibitors for treatment of cancer” (TRUSTEES OF BOSTON UNIVERSITY, priority 2018, dated 2023).
Read-outs that look alike come from different tables or passages of the source.

How the values were obtained:
Assay in all cases: biochemical
Format in all cases: binding
[1] = target: panel of 468 diverse kinases (Homo sapiens, UniProt Q02779); conditions: MLK2; 1000 nM; read-out: Percent Control
[2] = target: panel of 468 diverse kinases (Homo sapiens, UniProt P54760); conditions: EPHB4; 1000 nM; read-out: Percent Control
[3] = target: panel of 468 diverse kinases (Homo sapiens, UniProt Q6DT37); conditions: DMPK2; 1000 nM; read-out: Percent Control
[4] = target: panel of 468 diverse kinases (Homo sapiens, UniProt Q08345); conditions: DDR1; 1000 nM; read-out: Percent Control
[5] = target: panel of 468 diverse kinases (Homo sapiens, UniProt O00238); conditions: BMPR1B; 1000 nM; read-out: Percent Control
Chain of panel of 468 diverse kinases (Homo sapiens, UniProt O00238) (O00238 14-502 limits assumed): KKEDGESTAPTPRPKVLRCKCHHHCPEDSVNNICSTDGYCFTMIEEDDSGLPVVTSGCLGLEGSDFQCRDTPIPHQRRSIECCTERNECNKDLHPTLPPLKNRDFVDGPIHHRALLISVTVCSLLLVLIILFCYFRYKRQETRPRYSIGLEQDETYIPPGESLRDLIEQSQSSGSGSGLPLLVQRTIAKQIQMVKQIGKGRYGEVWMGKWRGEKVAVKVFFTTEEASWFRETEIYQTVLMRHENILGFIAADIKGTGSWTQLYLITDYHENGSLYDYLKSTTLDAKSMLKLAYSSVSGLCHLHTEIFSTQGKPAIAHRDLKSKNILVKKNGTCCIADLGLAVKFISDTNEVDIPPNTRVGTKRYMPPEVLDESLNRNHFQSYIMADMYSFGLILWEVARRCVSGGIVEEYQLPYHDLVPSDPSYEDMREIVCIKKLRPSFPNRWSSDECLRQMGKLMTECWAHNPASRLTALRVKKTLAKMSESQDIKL

[6] = target: panel of 468 diverse kinases (Homo sapiens, UniProt P12931); conditions: SRC; 1000 nM; read-out: Percent Control
Chain of panel of 468 diverse kinases (Homo sapiens, UniProt P12931) (P12931 2-536 limits assumed): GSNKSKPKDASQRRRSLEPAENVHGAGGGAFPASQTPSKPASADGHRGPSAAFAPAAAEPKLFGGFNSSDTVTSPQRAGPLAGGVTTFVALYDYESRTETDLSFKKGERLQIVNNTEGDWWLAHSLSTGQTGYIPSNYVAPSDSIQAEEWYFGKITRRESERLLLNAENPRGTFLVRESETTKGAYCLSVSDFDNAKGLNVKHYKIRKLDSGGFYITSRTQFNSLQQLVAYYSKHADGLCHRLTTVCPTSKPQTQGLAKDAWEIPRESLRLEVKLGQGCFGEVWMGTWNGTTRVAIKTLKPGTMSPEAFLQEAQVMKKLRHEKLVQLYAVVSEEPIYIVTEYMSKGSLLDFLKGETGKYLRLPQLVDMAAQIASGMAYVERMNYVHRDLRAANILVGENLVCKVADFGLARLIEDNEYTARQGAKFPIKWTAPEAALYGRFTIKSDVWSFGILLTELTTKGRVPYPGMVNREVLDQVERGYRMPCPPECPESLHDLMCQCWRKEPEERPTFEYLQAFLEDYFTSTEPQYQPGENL

[7] = target: panel of 468 diverse kinases (Homo sapiens, UniProt P35916); conditions: FLT4; 1000 nM; read-out: Percent Control
Chain of panel of 468 diverse kinases (Homo sapiens, UniProt P35916) (P35916 25-1363 limits assumed): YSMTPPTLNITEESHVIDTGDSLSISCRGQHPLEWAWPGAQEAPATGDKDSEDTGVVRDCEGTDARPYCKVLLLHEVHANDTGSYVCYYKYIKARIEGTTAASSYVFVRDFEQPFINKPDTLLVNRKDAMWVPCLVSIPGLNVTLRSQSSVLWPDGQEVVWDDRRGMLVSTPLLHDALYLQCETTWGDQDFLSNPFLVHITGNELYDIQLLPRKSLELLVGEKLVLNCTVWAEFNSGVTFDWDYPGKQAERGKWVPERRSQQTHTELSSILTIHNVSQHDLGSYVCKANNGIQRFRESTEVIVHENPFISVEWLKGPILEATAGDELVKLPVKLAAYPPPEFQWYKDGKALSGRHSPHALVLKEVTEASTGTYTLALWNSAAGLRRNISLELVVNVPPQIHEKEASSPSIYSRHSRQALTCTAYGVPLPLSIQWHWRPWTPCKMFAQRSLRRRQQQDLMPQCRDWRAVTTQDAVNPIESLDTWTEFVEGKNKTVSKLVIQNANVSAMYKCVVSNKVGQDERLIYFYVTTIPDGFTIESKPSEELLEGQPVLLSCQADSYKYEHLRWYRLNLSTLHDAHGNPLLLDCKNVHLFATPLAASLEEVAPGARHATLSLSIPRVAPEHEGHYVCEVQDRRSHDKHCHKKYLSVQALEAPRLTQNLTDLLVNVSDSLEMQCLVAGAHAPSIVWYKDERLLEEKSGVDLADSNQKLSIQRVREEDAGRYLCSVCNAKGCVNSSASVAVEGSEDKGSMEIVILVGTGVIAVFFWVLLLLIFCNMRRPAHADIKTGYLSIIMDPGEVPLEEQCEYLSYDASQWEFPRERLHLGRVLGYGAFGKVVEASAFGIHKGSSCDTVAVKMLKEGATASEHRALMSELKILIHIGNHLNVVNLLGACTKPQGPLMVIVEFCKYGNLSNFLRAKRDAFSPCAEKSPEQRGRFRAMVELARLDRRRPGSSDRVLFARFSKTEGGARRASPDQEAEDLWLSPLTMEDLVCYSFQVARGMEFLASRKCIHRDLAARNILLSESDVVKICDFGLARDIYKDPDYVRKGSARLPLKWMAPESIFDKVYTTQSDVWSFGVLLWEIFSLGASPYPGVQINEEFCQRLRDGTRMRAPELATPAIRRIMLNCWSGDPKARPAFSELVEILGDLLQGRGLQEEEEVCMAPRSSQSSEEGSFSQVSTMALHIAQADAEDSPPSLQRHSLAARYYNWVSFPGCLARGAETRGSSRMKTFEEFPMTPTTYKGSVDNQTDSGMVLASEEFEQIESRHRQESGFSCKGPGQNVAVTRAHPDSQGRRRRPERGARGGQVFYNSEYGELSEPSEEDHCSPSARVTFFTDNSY

[8] = target: panel of 468 diverse kinases (Homo sapiens, UniProt P10721, D816H); conditions: KIT(D816H); 1000 nM; read-out: Percent Control
Chain of panel of 468 diverse kinases (Homo sapiens, UniProt P10721, D816H) (P10721 26-976 D816H limits assumed): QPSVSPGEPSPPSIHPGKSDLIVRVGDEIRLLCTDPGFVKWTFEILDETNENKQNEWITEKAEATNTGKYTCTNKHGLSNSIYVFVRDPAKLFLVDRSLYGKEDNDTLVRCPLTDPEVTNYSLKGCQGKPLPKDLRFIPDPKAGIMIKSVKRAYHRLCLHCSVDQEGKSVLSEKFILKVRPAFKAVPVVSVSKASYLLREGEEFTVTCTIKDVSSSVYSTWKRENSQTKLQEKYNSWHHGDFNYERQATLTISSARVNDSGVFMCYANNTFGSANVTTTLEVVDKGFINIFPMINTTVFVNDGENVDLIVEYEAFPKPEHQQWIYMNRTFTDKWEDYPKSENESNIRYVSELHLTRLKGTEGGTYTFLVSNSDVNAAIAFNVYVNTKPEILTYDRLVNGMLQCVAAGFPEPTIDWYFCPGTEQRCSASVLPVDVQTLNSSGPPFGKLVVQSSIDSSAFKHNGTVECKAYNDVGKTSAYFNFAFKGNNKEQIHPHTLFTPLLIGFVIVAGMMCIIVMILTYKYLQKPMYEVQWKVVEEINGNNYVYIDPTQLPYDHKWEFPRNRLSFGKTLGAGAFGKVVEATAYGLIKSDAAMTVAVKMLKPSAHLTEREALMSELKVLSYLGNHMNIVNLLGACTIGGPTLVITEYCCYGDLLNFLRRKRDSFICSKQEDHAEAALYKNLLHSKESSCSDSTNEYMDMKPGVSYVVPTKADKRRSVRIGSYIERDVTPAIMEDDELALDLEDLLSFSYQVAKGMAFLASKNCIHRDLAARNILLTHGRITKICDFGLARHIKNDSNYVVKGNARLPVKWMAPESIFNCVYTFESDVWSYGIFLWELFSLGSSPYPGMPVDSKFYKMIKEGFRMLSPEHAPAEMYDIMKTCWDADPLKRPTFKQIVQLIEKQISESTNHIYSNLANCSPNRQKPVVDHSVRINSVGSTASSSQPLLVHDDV

[9] = target: panel of 468 diverse kinases (Homo sapiens, UniProt Q92918); conditions: HPK1; 1000 nM; read-out: Percent Control
[10] = target: panel of 468 diverse kinases (Homo sapiens, UniProt Q8TDX7); conditions: NEK7; 1000 nM; read-out: Percent Control
[11] = target: panel of 468 diverse kinases (Homo sapiens, UniProt P43403); conditions: ZAP70; 1000 nM; read-out: Percent Control
[12] = target: panel of 468 diverse kinases (Homo sapiens, UniProt O94768); conditions: DRAK2; 1000 nM; read-out: Percent Control
[13] = target: panel of 468 diverse kinases (Homo sapiens, UniProt Q9H1R3); conditions: MYLK2; 1000 nM; read-out: Percent Control
Chain of panel of 468 diverse kinases (Homo sapiens, UniProt Q9H1R3) (Q9H1R3 2-596 limits assumed): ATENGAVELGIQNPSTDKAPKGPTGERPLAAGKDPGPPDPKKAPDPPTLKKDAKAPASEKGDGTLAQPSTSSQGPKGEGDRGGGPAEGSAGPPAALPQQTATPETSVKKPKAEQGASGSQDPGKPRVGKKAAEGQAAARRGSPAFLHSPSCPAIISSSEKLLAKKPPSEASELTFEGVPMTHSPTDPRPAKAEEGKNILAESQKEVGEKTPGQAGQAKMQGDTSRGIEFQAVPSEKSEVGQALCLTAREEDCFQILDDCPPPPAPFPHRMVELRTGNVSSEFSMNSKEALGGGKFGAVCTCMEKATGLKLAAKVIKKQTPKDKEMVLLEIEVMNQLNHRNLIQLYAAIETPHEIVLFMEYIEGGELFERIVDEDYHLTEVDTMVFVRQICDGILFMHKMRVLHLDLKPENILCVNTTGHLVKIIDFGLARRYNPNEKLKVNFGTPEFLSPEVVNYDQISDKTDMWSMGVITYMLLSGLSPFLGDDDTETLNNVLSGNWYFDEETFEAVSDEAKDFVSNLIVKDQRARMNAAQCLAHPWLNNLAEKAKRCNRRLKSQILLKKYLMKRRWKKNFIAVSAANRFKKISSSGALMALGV

[14] = target: panel of 468 diverse kinases (Homo sapiens, UniProt P48729); conditions: CSNKIV1; 1000 nM; read-out: Percent Control
[15] = target: panel of 468 diverse kinases (Homo sapiens, UniProt P36888, K663Q); conditions: FLT3(K663Q); 1000 nM; read-out: Percent Control
[16] = target: panel of 468 diverse kinases (Homo sapiens, UniProt Q13882); conditions: BRK; 1000 nM; read-out: Percent Control
[17] = target: panel of 468 diverse kinases (Homo sapiens, UniProt Q8WXR4); conditions: MYO3B; 1000 nM; read-out: Percent Control
[18] = target: panel of 468 diverse kinases (Homo sapiens, UniProt Q9C098); conditions: DCAMKL3; 1000 nM; read-out: Percent Control
[19] = target: panel of 468 diverse kinases (Homo sapiens, UniProt Q13554); conditions: CAMK2B; 1000 nM; read-out: Percent Control
[20] = target: panel of 468 diverse kinases (Homo sapiens, UniProt Q9UQM7); conditions: CAMK2A; 1000 nM; read-out: Percent Control
[21] = target: panel of 468 diverse kinases (Homo sapiens, UniProt P07333); conditions: 1000 nM, read-out: Percent Control
Chain of panel of 468 diverse kinases (Homo sapiens, UniProt P07333) (P07333 20-972 limits assumed): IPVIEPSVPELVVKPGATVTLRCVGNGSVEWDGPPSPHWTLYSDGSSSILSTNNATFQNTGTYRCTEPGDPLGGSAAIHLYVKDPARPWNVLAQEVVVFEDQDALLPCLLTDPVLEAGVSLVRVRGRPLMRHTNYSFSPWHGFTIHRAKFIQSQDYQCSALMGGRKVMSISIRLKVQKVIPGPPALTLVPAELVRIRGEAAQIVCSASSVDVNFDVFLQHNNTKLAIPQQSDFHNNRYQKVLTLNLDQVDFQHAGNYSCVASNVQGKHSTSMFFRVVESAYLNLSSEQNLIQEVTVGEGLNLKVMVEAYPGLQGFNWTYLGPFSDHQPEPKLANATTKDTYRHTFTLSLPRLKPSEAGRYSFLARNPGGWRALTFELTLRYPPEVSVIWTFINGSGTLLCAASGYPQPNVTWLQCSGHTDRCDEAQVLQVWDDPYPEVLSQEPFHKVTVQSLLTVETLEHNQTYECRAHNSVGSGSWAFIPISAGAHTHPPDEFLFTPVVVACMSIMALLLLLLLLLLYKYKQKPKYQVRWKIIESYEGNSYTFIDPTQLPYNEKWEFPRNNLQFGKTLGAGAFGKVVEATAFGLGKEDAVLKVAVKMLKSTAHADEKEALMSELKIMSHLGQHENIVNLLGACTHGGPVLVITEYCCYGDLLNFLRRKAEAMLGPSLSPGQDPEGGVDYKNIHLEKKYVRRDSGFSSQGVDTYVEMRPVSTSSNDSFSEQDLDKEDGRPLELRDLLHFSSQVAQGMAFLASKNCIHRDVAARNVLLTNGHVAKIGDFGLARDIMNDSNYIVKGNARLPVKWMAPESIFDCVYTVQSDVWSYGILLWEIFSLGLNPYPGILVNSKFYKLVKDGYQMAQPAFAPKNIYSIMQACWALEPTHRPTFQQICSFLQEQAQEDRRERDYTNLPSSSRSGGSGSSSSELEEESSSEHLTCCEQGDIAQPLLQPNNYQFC

[22] = target: panel of 468 diverse kinases (Homo sapiens, UniProt Q96NX5); conditions: CAMK1G; 1000 nM; read-out: Percent Control
[23] = target: panel of 468 diverse kinases (Homo sapiens, UniProt Q9H422); conditions: HIPK3; 1000 nM; read-out: Percent Control
[24] = target: panel of 468 diverse kinases (Homo sapiens, UniProt P36888, R834Q); conditions: FLT3(R834Q); 1000 nM; read-out: Percent Control
[25] = target: panel of 468 diverse kinases (Homo sapiens, UniProt P17612); conditions: PKAC-alpha; 1000 nM; read-out: Percent Control
[26] = target: panel of 468 diverse kinases (Homo sapiens, UniProt P42336, E545A); conditions: PIK3CA(E545A); 1000 nM; read-out: Percent Control
[27] = target: panel of 468 diverse kinases (Homo sapiens, UniProt O15530); conditions: PDPK1; 1000 nM; read-out: Percent Control
[28] = target: panel of 468 diverse kinases (Homo sapiens, UniProt P32298); conditions: GRK4; 1000 nM; read-out: Percent Control
[29] = target: panel of 468 diverse kinases (Homo sapiens, UniProt P20794); conditions: MAK; 1000 nM; read-out: Percent Control
[30] = target: panel of 468 diverse kinases (Homo sapiens, UniProt Q8IVH8); conditions: MAP4K3; 1000 nM; read-out: Percent Control
[31] = target: panel of 468 diverse kinases (Homo sapiens, UniProt Q96PY6); conditions: NEK1; 1000 nM; read-out: Percent Control

COc1cc2nc(NC3CC3)nc(NC3CCN(C(C)C)CC3)c2cc1OC [Formula IV]
remaining activity at 1 µM [1]: 95% | remaining activity at 1 µM [2]: 100% | remaining activity at 1 µM [3]: 99% | remaining activity at 1 µM [4]: 88% | remaining activity at 1 µM [5]: 55% | remaining activity at 1 µM [6]: 97% | remaining activity at 1 µM [7]: 80% | remaining activity at 1 µM [8]: 78% | remaining activity at 1 µM [9]: 86% | remaining activity at 1 µM [10]: 89% | remaining activity at 1 µM [11]: 91% | remaining activity at 1 µM [12]: 79% | remaining activity at 1 µM [13]: 96% | remaining activity at 1 µM [14]: 74% | remaining activity at 1 µM [15]: 98% | remaining activity at 1 µM [16]: 100% | remaining activity at 1 µM [17]: 91% | remaining activity at 1 µM [18]: 92% | remaining activity at 1 µM [19]: 91% | remaining activity at 1 µM [20]: 87% | remaining activity at 1 µM ([21]; CSF1R-autoinhibited): 54% | remaining activity at 1 µM ([21]; CSF1R): 91% | remaining activity at 1 µM [22]: 99% | remaining activity at 1 µM [23]: 61% | remaining activity at 1 µM [24]: 40% | remaining activity at 1 µM [25]: 85% | remaining activity at 1 µM [26]: 89% | remaining activity at 1 µM [27]: 97% | remaining activity at 1 µM [28]: 100% | remaining activity at 1 µM [29]: 88% | remaining activity at 1 µM [30]: 91% | remaining activity at 1 µM [31]: 100%
